The values below come from US5173405A, “Use of arsenite to reversibly block steroid binding to glucocorticoid receptors in the presence of other steroid receptors” (priority 1990, dated 1992).

For experiment [1], the system named is steroid-free glucocorticoid receptors. In words: Reversal by thiols of arsenite inhibition of [3H]Dex binding to steroid-free receptors. To be noted: receptors preincubated with 40 uM arsenite 30 min, then thiol 30 min. The protocol: Referring to FIG. 4, steroid-free receptors in pH 8.8 TAPS buffer containing 21 mM Na2 MoO4 were preincubated with 40 uM arsenite for 30 min and then adjusted to various concentrations of DTT or β-MERC by addition of 100× solutions of each thiol in pH 8.8 TAPS buffer. After a further 30 min preincubation, the binding activity of these receptors was assayed by incubating with [^3 H]Dex±excess [^1 H]Dex for 2.5 hr. The amount of specific binding (determined as described above for FIG. 1A) of [^3 H]Dex after DTT(o) and β-MERC preincubation was expressed as a percent of the untreated control.
(§1) The growth of HTC cells at 37° C. in spinner and monolayer cultures of Swim's S77 medium (GIBCO; Grand Island, N.Y.) supplemented with 5% fetal and 5% newborn bovine serum (both obtained from Biofluids; Rockville, Md.) and 0.03% glutamine are described in Thompson, 1979. HTC cell cytosol containing the steroid-free receptors was prepared, stored in liquid N2, and labelled as set forth in Reichman et al., Biochem., 23, 5376-5384, 1984; Simons et al., Biochem., 23, 6876-6882, 1984. […] The specifically bound [^3 H]Dex was determined by first adding a 10% dextran-coated charcoal solution (added volume=20% of reaction solution volume) to remove free steroid and then subtracting the nonspecific binding seen in the presence of excess [^1 H]Dex.

Experiment [2] deals with human estrogen and progesterone receptors (other receptors). In words: [3H]steroid binding of estrogen and progesterone receptors in MCF-7 cell cytosol after arsenite preincubation. To be noted: arsenite between 100 and 500 μM. The protocol:
(§2) Referring to FIG. 7, steroid-free receptors (glucocorticoid, estrogen, and progesterone receptors in MCF-7 cell [from NCI, NIH] cytosol in pH 7.5 HEPES buffer containing 21 mM Na2 MoO4) were treated with various concentrations of 100× (in pH 7.5 HEPES buffer) sodium arsenite for 30 min. The binding activity of these receptors was then assayed by incubating with [^3 H]steroid±[^1 H]steroid for 2.5 hr. The amount of specific binding of [^3 H]steroid (as described above for FIG. 1A) after arsenite preincubation was expressed as the percent of the untreated control for glucocorticoid estrogen (Δ), and progesterone (.smallcircle.) receptors.
(§3) MCF-7 cells (obtained from NIH) were grown as monolayer cultures in Richter's IMEM (NIH Media Unit, NIH) (supplemented with 10% fetal bovine serum [Biofluids] and 0.03% glutamine) in an atmosphere of 5% CO2 /95% air at 37° C. Crude receptor solutions were prepared by freeze-thaw lysis (in liquid N2) of cells washed in phosphate buffered saline (Reichman et al., 1984; Simons et al., 1984). The cell lysates were treated with either […] TAPS or pH 7.5 HEPES buffer (containing 20 mM Na2 MoO4) and centrifuged at 2500×g for 10 min or 100,000×g for 60 min. […]

Experiment [3] relates to human glucocorticoid receptors. Description: [3H]steroid binding of glucocorticoid receptors in MCF-7 cell cytosol after arsenite preincubation. To be noted: arsenite between 100 and 500 μM. The protocol:
as §2, §3

The subject of experiment [4] is 16 kDa steroid-binding core fragment of HTC cell receptors. Description: [3H]Dex binding to trypsin-generated 16 kDa core fragment after preincubation with arsenite or MMTS. Further details: species or system rat. As to conditions: preincubation with arsenite 30 min or MMTS 2.5 hr. The procedure:
Referring to FIG. 6, duplicate samples of steroid-free receptors in pH 8.8 TAPS buffer containing 21 mM Na2 MoO4 were digested with trypsin (14 μg/ml for 1 hr), to generate the 16 kDa core fragment of the receptor, followed by a 10-fold (wt/wt) excess of soybean trypsin inhibitor to block further digestion. The samples were then treated with various concentrations of arsenite (for 30 min) or MMTS (for 2.5 hr) before determining the remaining [^3 H]Dex binding as described above for FIG. 1A.
as §1

Experiment [5] has as its target T1, glucocorticoid receptors (HTC cell receptors) (Rattus norvegicus, UniProt P06536).
T1 sequence (P06536 1-795): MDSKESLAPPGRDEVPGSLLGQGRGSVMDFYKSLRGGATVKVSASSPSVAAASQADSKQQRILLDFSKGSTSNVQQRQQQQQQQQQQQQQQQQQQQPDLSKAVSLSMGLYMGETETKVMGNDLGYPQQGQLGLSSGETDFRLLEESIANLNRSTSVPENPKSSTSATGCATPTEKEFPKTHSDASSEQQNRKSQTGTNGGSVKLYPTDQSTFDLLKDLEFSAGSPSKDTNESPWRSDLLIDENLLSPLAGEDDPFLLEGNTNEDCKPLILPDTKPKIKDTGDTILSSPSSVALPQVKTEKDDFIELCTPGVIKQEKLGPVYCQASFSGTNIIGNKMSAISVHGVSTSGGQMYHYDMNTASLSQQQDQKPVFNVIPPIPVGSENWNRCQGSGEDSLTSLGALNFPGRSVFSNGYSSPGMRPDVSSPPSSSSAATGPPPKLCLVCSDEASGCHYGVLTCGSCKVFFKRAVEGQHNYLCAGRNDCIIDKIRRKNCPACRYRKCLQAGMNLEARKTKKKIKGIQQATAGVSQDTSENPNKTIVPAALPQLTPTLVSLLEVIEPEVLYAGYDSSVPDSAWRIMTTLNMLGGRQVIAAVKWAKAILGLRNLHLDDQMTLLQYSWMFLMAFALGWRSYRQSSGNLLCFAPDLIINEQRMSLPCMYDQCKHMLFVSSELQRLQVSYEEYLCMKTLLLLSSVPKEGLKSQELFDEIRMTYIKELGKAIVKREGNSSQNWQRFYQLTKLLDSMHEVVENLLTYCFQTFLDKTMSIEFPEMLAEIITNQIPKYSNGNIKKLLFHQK
In words: [3H]Dex binding to HTC cell cytosol receptors after preincubation with MMTS or arsenite. As to conditions: for inactivation of steroid-binding activity of glucocorticoid receptors: low concentrations of MMTS, very low concentrations of arsenite. The procedure:
Referring to FIG. 1A, duplicate samples of HTC cell (Thompson, E.B., Methods Enzymol., 58, 544-551 [1979]) cytosol solution were pretreated with various concentrations of MMTS in absolute EtOH (final concentration of ETOH=1%) for 0 hr (.smallcircle.), 0.5 hr, or 2.5 hr before the addition of [^3 H]Dex±[^1 H]Dex. After a further 2.5 hr incubation, the free steroid was removed by the addition of dextran-coatedcharcoal. The specific binding to receptors was determined as described by Miller and Simons, J. Biol. Chem., 263, 15217-15225, 1988) (see also section entitled "Cells and preparation and labelling of receptors" below) and plotted as percentage of the EtOH-pretreated control versus the concentration of MMTS. The data points shown are the average values derived from 1-5 experiments.
Referring to FIG. 1B, duplicate samples of HTC cell cytosol solution were treated with various concentrations of MMTS for 2.5 hr before determining the remaining steroid binding activity of the receptors as described above for FIG. 1A.
Referring to FIG. 3, steroid-free receptors containing 21 mM Na2 MoO4 were incubated with various concentrations of 100× (in pH 8.8 TAPS buffer) arsenite for 30 min. The binding activity of these receptors was then assayed by incubating with [^3 H]Dex±excess [^1 H]Dex for 2.5 hr. The amount of specific binding of [^3 H]Dex (determined as described above for FIG. 1A) after arsenite preincubation was expressed as a percent of the untreated control.
The growth of HTC cells at 37° C. in spinner and monolayer cultures of Swim's S77 medium (GIBCO; Grand Island, N.Y.) supplemented with 5% fetal and 5% newborn bovine serum (both obtained from Biofluids; Rockville, Md.) and 0.03% glutamine are described in Thompson, 1979. […] The specifically bound [^3 H]Dex was determined by first adding a 10% dextran-coated charcoal solution (added volume=20% of reaction solution volume) to remove free steroid and then subtracting the nonspecific binding seen in the presence of excess [^1 H]Dex.

Take `O[C@H](CS)[C@H](O)CS` (racemic) [DTT, dithiothreitol]: in experiment [1], the “reversal of arsenite inhibition of steroid binding” value is “reversal of arsenite inhibition of steroid binding”.
With `O=[As]O` [arsenite, sodium arsenite], the “effect on other receptors” value in experiment [2] is reported as “little effect on other receptors”. In addition, the “inhibition of glucocorticoid binding” value in experiment [3] was “complete inhibition of glucocorticoid binding”. For the same compound, in experiment [4], the “inhibition of [3H]Dex binding to 16 kDa steroid-binding core fragment” value was “inhibition of [^3 H]Dex binding”. Besides, the “inactivation of steroid-binding activity of glucocorticoid receptors” value in experiment [5] was “specifically and reversibly inactivate all of the steroid-binding activity of glucocorticoid receptors”.
In the case of `OCCS` [β-MERC, β-mercaptoethanol], the “reversal of arsenite inhibition of steroid binding” value in experiment [1] is reported as “reversal of arsenite inhibition of steroid binding”.
With `CSS(C)(=O)=O` [MMTS, methyl methanethiolsulfonate], the “inhibition of [3H]Dex binding to 16 kDa steroid-binding core fragment” value in experiment [4] is “inhibition of [^3 H]Dex binding”. In addition, in experiment [5], the “inactivation of steroid-binding activity of glucocorticoid receptors” value is “specifically and reversibly inactivate all of the steroid-binding activity of glucocorticoid receptors”. The “preferred MMTS concentration for blocking rat glucocorticoid receptors” value in experiment [5] (rat glucocorticoid receptors) is given as “approximately 300 μM”.
